We go through two compounds from patent US20030013078A1, “HIV-1 reporter viruses and their use in assaying anti-viral compounds” (priority 2000, published 2003).

Format in all cases: cell-based, HIV-1
In experiment [1] the test system is NL4Rluc. In words: Inhibition of NL4Rluc reporter virus replication in MT-2 #18 cells (renilla luciferase activity). The note with it: Human immunodeficiency virus 1, read-out: EC50, inhibition of viral replication. The procedure:
(§1) MT-2 #18 cells were pelleted and infected with virus stocks at a multiplicity of infection (MOI) of 0.01 at 37° C. for 2hrs. Viruses were removed and cells were washed twice with 1×PBS before re-suspending in a final concentration of 10,000 cells/100 uL. Infectivity and drug sensitivity assays were carried out in 96 well tissue culture plates, and kinetic studies were carried out in T-25 flasks. Cell supernatants were harvested on day 0, 2, 3, 5 or 6, and passaged virus was harvested on day 2 or 3. The activity for the capsid protein p24 was analyzed according to manufacturer's protocol utilizing the Zeptometrix Retrotek product (Zeptometrix Incorporated, Buffalo, N.Y.).
(§2) Large volume cultures of MT-2 #18 cells were prepared and kept at a concentration of less than 0.5×10^6 cells per milliliter in RPMI media with 10% fetal calf serum. Test compounds were plated into a 96 well tissue culture treated clear bottom black plates (Corning Incorporated, Corning, N.Y.) at a concentration of 3 mM in 20 microliters of dionized water and 5% dimethyl sulfoxide. […]
(§3) Renilla luciferase activity was measured using the Promega Dual Luciferase Reporter kit (Promega Corp., Madison, Wis.). […] Following the substrate addition, plates were immediately sealed and read for 5 seconds per well in a Wallac Microbeta 1450 (Perkin-Elmer Wallac Incorporated, Gaithersburg, Md.) in the luminescence mode. […]

For experiment [2], the system named is JRFNRLuc. In words: Inhibition of JRFNRLuc reporter virus replication in MT-2 #18 cells (renilla luciferase activity). Conditions: Human immunodeficiency virus 1, read-out: EC50, inhibition of viral replication. The procedure:
as §1, §2, §3

Experiment [3] deals with JRFNFLuc. Description: Inhibition of JRFNFLuc reporter virus infection in MT-2 #18 cells (firefly luciferase activity). Conditions: for EC50: Human immunodeficiency virus 1, read-out: EC50, inhibition of viral replication. As for the experimental part:
as §1
Large volume cultures of MT-2 #18 cells were prepared and kept at a concentration of less than 0.5×10^6 cells per milliliter in RPMI media with 10% fetal calf serum. Test compounds were plated into a 96 well tissue culture treated clear bottom black plates (Corning Incorporated, Corning, N.Y.) at a concentration of 3 mM in 20 microliters of dionized water and 5% dimethyl sulfoxide. MT-2 #18 cells were pelleted via low speed centrifugation and re-suspended in fresh media. Reporter viruses were added to the fresh media and cells to obtain the appropriate MOI of 0.01 and a cell concentration of 1×10^4 in 160 microliters. Twenty microliters per well of 2×complete modified eagle's media was then added to compensate for the dionized water volume. 180 microliters of this mixture is then added to each test compound well and control wells. Following a 5 to 6 day incubation at 37° C., media was aspirated from the wells utilizing a 12-channel manifold.
The replication ability of the NL4Rluc and JRFNRLuc viruses were then compared to that of the JRFNFLuc virus. JRFNFLuc differs from JRFNRLuc in that it encodes the firefly luciferase gene instead of the renilla luciferase gene. JRFNFLuc was constructed in a fashion similar to that previously reported (Chen et al., 1994). Infection of T-cell lines by JRFNFLuc was carried out exactly as that was done for NL4Rluc and JRFNRLuc viruses. […] Upon passing the day 6 post infection JRFNFLuc supernatant onto uninfected MT-2 #18 cells, no firefly luciferase activity or p24 production could be detected up to seven days post inoculation (data not shown). […] The finding that this virus was not capable of inhibition by a late stage HIV-1 replication cycle inhibitor is further evidence of it not being able to replicate.

Experiment [4] has as its system JRFNSEAP
Description: Inhibition of JRFNSEAP reporter virus replication in MT-2 #18 cells (SEAP activity). The note with it: Human immunodeficiency virus 1, provirus JRFNSEAP (CCR5-tropic), MOI 0.01, read-out: EC50, inhibition of viral replication. The procedure: as §1, §2
Secreted placental alkaline phosphatase (SEAP) activity was measured using the a 1,2 dioxetane alkaline phosphatase substrate called CSPD (Tropix PE Applied Biosystems, Bedford, Mass.). […] Light emission can be measured utilizing a scintillation counter or a luminometer. […]

As a reminder, the EC50 is the midpoint of the concentration-response curve. For the compound `CC(C)CN(C[C@@H](O)[C@H](Cc1ccccc1)NC(=O)O[C@H]1CCOC1)S(=O)(=O)c1ccc(N)cc1` [Amprenavir], the EC50 in experiment [1] is 19.4 nM; in experiment [2], 6.9 nM; in experiment [3] it was greater than 10000 nM; in experiment [4], 21.5 nM. Besides, the “Non-inhibiting concentration on JRFNFLuc relative to the EC50 on the replication competent JRFNRLuc” value in experiment [3] (10 uM versus JRFNRLuc) is “over 1000 fold”. Further, in experiment [3] (at 10 uM), the “Inhibition of JRFNFLuc virus” value is “unable to inhibit”.
In the case of `O=C1Nc2ccc(Cl)cc2[C@@](C#CC2CC2)(C(F)(F)F)O1` [Efavirenz], the EC50 was determined as 0.36 nM in experiment [1], 0.12 nM in experiment [2], 0.18 nM in experiment [3] and 0.1 nM in experiment [4].
